Publication PMC5218480 (PLoS ONE, 2017)

Test system: MV-4-11 cells
Experiment: Gene expression microarray analysis (Affymetrix PrimeView) and GSEA
Assay type: cell-based, human
Design: RFU PODN (11730768_x_at) / Fold change /veh PODN (11730768_x_at) / RFU LINC00158 (11744669_a_at) / Fold change /veh LINC00158 (11744669_a_at) / RFU DUSP10 (11751237_a_at) / Fold change /veh DUSP10 (11751237_a_at) / RFU ID3 (11757404_x_at) / Fold change /veh ID3 (11757404_x_at) / RFU PLEKHG5 (11737974_s_at) / Fold change /veh PLEKHG5 (11737974_s_at) / RFU LRRC4B (11730491_at) / Fold change /veh LRRC4B (11730491_at) / RFU GIMAP4 (11747438_a_at) / Fold change /veh GIMAP4 (11747438_a_at) / RFU KRT8 (11758183_x_at) / Fold change /veh KRT8 (11758183_x_at) / RFU CNN1 (11734310_a_at) / Fold change /veh CNN1 (11734310_a_at) / RFU VPS37D (11726825_at) / Fold change /veh VPS37D (11726825_at) / RFU C10orf10 (11716522_x_at) / Fold change /veh C10orf10 (11716522_x_at) / RFU KIR2DL2 /// KIR2DL4 /// KIR2DL5A /// KIR2DL5B /// KIR2DS1 /// KIR2DS2 /// KIR2DS3 /// KIR2DS4 /// KIR3DL3 /// KIR3DL3 /// KIR3DS1 (11738374_at) / Fold change /veh KIR2DL2 /// KIR2DL4 /// KIR2DL5A /// KIR2DL5B /// KIR2DS1 /// KIR2DS2 /// KIR2DS3 /// KIR2DS4 /// KIR3DL3 /// KIR3DL3 /// KIR3DS1 (11738374_at) / RFU C1QL1 (11718748_at) / Fold change /veh C1QL1 (11718748_at) / RFU TMPRSS4 (11747572_a_at) / Fold change /veh TMPRSS4 (11747572_a_at) / RFU HAMP (11756126_x_at) / Fold change /veh HAMP (11756126_x_at) / RFU RNFT2 (11725882_a_at) / Fold change /veh RNFT2 (11725882_a_at) / RFU NR4A2 (11747474_a_at) / Fold change /veh NR4A2 (11747474_a_at) / RFU ABCC12 (11746883_a_at) / Fold change /veh ABCC12 (11746883_a_at) / RFU TMEM136 (11760407_x_at) / Fold change /veh TMEM136 (11760407_x_at) / RFU CLDN22 /// WWC2 (11732394_at) / Fold change /veh CLDN22 /// WWC2 (11732394_at) / RFU HLA-DPB1 (11760878_x_at) / Fold change /veh HLA-DPB1 (11760878_x_at) / RFU SPINT1 (11716480_a_at) / Fold change /veh SPINT1 (11716480_a_at) / RFU GAP43 (11754022_s_at) / Fold change /veh GAP43 (11754022_s_at) / RFU A4GNT (11735810_at) / Fold change /veh A4GNT (11735810_at) / RFU PRB3 (11715151_x_at) / Fold change /veh PRB3 (11715151_x_at) / RFU TUBB4B (11761932_at) / Fold change /veh TUBB4B (11761932_at) / RFU CAPN14 (11732068_a_at) / Fold change /veh CAPN14 (11732068_a_at) / RFU TMCC2 (11721928_a_at) / Fold change /veh TMCC2 (11721928_a_at) / RFU IRGQ (11745062_a_at) / Fold change /veh IRGQ (11745062_a_at) / RFU FAM174B (11720279_a_at) / Fold change /veh FAM174B (11720279_a_at) / RFU TMPRSS4 (11748680_a_at) / Fold change /veh TMPRSS4 (11748680_a_at) / RFU FAM212B (11763350_a_at) / Fold change /veh FAM212B (11763350_a_at) / RFU PLEKHG5 (11743358_a_at) / Fold change /veh PLEKHG5 (11743358_a_at) / RFU ZSCAN30 (11745921_a_at) / Fold change /veh ZSCAN30 (11745921_a_at) / RFU CMKLR1 (11741424_a_at) / Fold change /veh CMKLR1 (11741424_a_at) / RFU LOC101060620 /// MAPK8IP1 (11723275_at) / Fold change /veh LOC101060620 /// MAPK8IP1 (11723275_at) / RFU SPTSSB (11747773_x_at) / Fold change /veh SPTSSB (11747773_x_at) / RFU PRSS12 (11739890_at) / Fold change /veh PRSS12 (11739890_at) / RFU BIN1 (11741810_x_at) / Fold change /veh BIN1 (11741810_x_at) / RFU WNT11 (11732464_a_at) / Fold change /veh WNT11 (11732464_a_at) / RFU C10orf10 (11716521_a_at) / Fold change /veh C10orf10 (11716521_a_at) / RFU C5orf56 (11738089_at) / Fold change /veh C5orf56 (11738089_at) / RFU CYB561 (11721691_x_at) / Fold change /veh CYB561 (11721691_x_at) / RFU ANKRD19P (11752326_a_at) / Fold change /veh ANKRD19P (11752326_a_at) / RFU OR2T12 /// OR2T33 /// OR2T8 (11738714_s_at) / Fold change /veh OR2T12 /// OR2T33 /// OR2T8 (11738714_s_at) / RFU VCAN (11748164_a_at) / Fold change /veh VCAN (11748164_a_at) / RFU JSRP1 (11732532_at) / Fold change /veh JSRP1 (11732532_at) / RFU KRTAP10-11 (11738290_x_at) / Fold change /veh KRTAP10-11 (11738290_x_at) / RFU MYO3A (11730013_a_at) / Fold change /veh MYO3A (11730013_a_at) / RFU EBF3 (11725865_a_at) / Fold change /veh EBF3 (11725865_a_at) / RFU CAMK2N1 (11719241_x_at) / Fold change /veh CAMK2N1 (11719241_x_at) / RFU C5orf56 (11738088_a_at) / Fold change /veh C5orf56 (11738088_a_at) / RFU OLFML3 (11715873_a_at) / Fold change /veh OLFML3 (11715873_a_at) / RFU LOC100653217 /// NTM (11731650_a_at) / Fold change /veh LOC100653217 /// NTM (11731650_a_at) / RFU MAPK11 (11762145_a_at) / Fold change /veh MAPK11 (11762145_a_at) / RFU FIZ1 (11724087_x_at) / Fold change /veh FIZ1 (11724087_x_at) / RFU OASL (11726364_x_at) / Fold change /veh OASL (11726364_x_at) / RFU SOX15 (11748057_x_at) / Fold change /veh SOX15 (11748057_x_at) / RFU CD79A (11719716_a_at) / Fold change /veh CD79A (11719716_a_at) / RFU HIST1H1D (11736915_at) / Fold change /veh HIST1H1D (11736915_at) / RFU CASKIN2 (11723855_a_at) / Fold change /veh CASKIN2 (11723855_a_at) / RFU LOC730098 (11760151_x_at) / Fold change /veh LOC730098 (11760151_x_at) / RFU OR4N2 (11742367_at) / Fold change /veh OR4N2 (11742367_at) / RFU PRRT2 (11749266_a_at) / Fold change /veh PRRT2 (11749266_a_at) / RFU SNX32 (11753110_a_at) / Fold change /veh SNX32 (11753110_a_at) / RFU CDHR5 (11726645_a_at) / Fold change /veh CDHR5 (11726645_a_at) / RFU RCAN1 (11760418_a_at) / Fold change /veh RCAN1 (11760418_a_at) / RFU FAM167A (11723789_a_at) / Fold change /veh FAM167A (11723789_a_at) / RFU FAM26E (11764081_at) / Fold change /veh FAM26E (11764081_at) / RFU ISYNA1 (11749810_s_at) / Fold change /veh ISYNA1 (11749810_s_at) / RFU ACY1 (11761880_at) / Fold change /veh ACY1 (11761880_at) / RFU 11764098_at / Fold change /veh 11764098_at / RFU SAMD14 (11745864_x_at) / Fold change /veh SAMD14 (11745864_x_at) / RFU NPB (11741838_a_at) / Fold change /veh NPB (11741838_a_at) / RFU TMPRSS6 (11731388_a_at) / Fold change /veh TMPRSS6 (11731388_a_at) / RFU KRTAP10-2 (11738614_at) / Fold change /veh KRTAP10-2 (11738614_at) / RFU ARHGAP8 /// PRR5-ARHGAP8 (11727945_x_at) / Fold change /veh ARHGAP8 /// PRR5-ARHGAP8 (11727945_x_at) / RFU KRTAP5-7 /// NADSYN1 (11734609_at) / Fold change /veh KRTAP5-7 /// NADSYN1 (11734609_at) / RFU RASL12 (11751679_a_at) / Fold change /veh RASL12 (11751679_a_at) / RFU CDKN2B (11736163_a_at) / Fold change /veh CDKN2B (11736163_a_at) / RFU PRF1 (11729649_at) / Fold change /veh PRF1 (11729649_at) / RFU, ZNF638 /// ZNF638-IT1 / Fold change vs veh, ZNF638 /// ZNF638-IT1 / RFU, PANK3 / Fold change vs veh, PANK3 / RFU, SH3YL1 / Fold change vs veh, SH3YL1 / RFU, ZEB2 / Fold change vs veh, ZEB2 / RFU, NRIP1 / Fold change vs veh, NRIP1 / RFU, PTTG1IP / Fold change vs veh, PTTG1IP / RFU, CAPN2 / Fold change vs veh, CAPN2 / RFU, MED14 / Fold change vs veh, MED14 / RFU, SNORA58 / Fold change vs veh, SNORA58 / RFU, C1orf63 / Fold change vs veh, C1orf63 / RFU, LRRFIP1 / Fold change vs veh, LRRFIP1 / RFU, NDUFAF7 / Fold change vs veh, NDUFAF7 / RFU, SLC12A2 / Fold change vs veh, SLC12A2 / RFU, IBTK / Fold change vs veh, IBTK / RFU, ESF1 / Fold change vs veh, ESF1 / Fold change vs veh, TMEM50B / RFU, TAOK1 / Fold change vs veh, TAOK1 / RFU, ACBD3 / Fold change vs veh, ACBD3 / RFU, TMA16 / Fold change vs veh, TMA16 / RFU, RWDD3 / Fold change vs veh, RWDD3 / RFU, BCAT1 / Fold change vs veh, BCAT1 / RFU, EDEM3 / Fold change vs veh, EDEM3 / RFU, TMEM33 / Fold change vs veh, TMEM33 / RFU, WDR75 / Fold change vs veh, WDR75 / RFU, AHCTF1 / Fold change vs veh, AHCTF1 / RFU, TFRC / Fold change vs veh, TFRC / RFU, ZDHHC17 / Fold change vs veh, ZDHHC17 / RFU, NOM1 / Fold change vs veh, NOM1 / RFU, ARL8B / Fold change vs veh, ARL8B / RFU, ZBTB11 / Fold change vs veh, ZBTB11 / RFU, TAMM41 / Fold change vs veh, TAMM41 / RFU, KIAA1704 /// LOC100996395 / Fold change vs veh, KIAA1704 /// LOC100996395 / RFU, ING1 / Fold change vs veh, ING1 / RFU, TRMT61B / Fold change vs veh, TRMT61B / RFU, FUBP3 / Fold change vs veh, FUBP3 / RFU, TP53 / Fold change vs veh, TP53 / RFU, TNKS2 / Fold change vs veh, TNKS2 / RFU, ZFP14 / Fold change vs veh, ZFP14 / RFU, ACTR2 / Fold change vs veh, ACTR2 / RFU, PPP3R1 / Fold change vs veh, PPP3R1 / RFU, PIK3R1 / Fold change vs veh, PIK3R1 / RFU, HNRNPA1 / Fold change vs veh, HNRNPA1 / RFU, RNF170 / Fold change vs veh, RNF170 / RFU, ZNF28 / Fold change vs veh, ZNF28 / RFU, RNGTT / Fold change vs veh, RNGTT / RFU, OGT / Fold change vs veh, OGT / RFU, BRD1 / Fold change vs veh, BRD1 / RFU, MARS / Fold change vs veh, MARS / RFU, ZNF655 / Fold change vs veh, ZNF655 / RFU, FAHD1 / Fold change vs veh, FAHD1 / RFU, BDP1 / Fold change vs veh, BDP1 / RFU, LRRCC1 / Fold change vs veh, LRRCC1 / RFU, ARID1A / Fold change vs veh, ARID1A / RFU, ZNF146 / Fold change vs veh, ZNF146 / RFU, ZNF330 / Fold change vs veh, ZNF330 / RFU, GPN3 / Fold change vs veh, GPN3 / RFU, C9orf123 / Fold change vs veh, C9orf123 / RFU, N4BP2L2 / Fold change vs veh, N4BP2L2 / RFU, ARFIP1 / Fold change vs veh, ARFIP1 / RFU, FAM179B / Fold change vs veh, FAM179B / RFU, BCL10 / Fold change vs veh, BCL10 / RFU, UHRF1BP1L / Fold change vs veh, UHRF1BP1L / RFU, BET1 / Fold change vs veh, BET1 / RFU, CNOT2 / Fold change vs veh, CNOT2 / RFU, ZNF268 / Fold change vs veh, ZNF268 / Fold change vs veh, ZNF507 / RFU, DGCR2 / Fold change vs veh, DGCR2 / RFU, WDSUB1 / Fold change vs veh, WDSUB1 / Fold change vs veh, HSP90B1 /// MIR3652 / RFU, ADSS / Fold change vs veh, ADSS / RFU, GK / Fold change vs veh, GK / RFU, ZNF148 / Fold change vs veh, ZNF148 / RFU, TAF9 / Fold change vs veh, TAF9 / RFU, SLC1A5 / Fold change vs veh, SLC1A5 / RFU, SLMO2 / Fold change vs veh, SLMO2 / RFU, ABCC4 / Fold change vs veh, ABCC4 / RFU, LOC101060439 /// RAP1B / Fold change vs veh, LOC101060439 /// RAP1B / RFU, RFX7 / Fold change vs veh, RFX7 / RFU, GTPBP10 / Fold change vs veh, GTPBP10 / RFU, CNEP1R1 / Fold change vs veh, CNEP1R1 / RFU, BIVM-ERCC5 /// ERCC5 / Fold change vs veh, BIVM-ERCC5 /// ERCC5 / RFU, ILF3 / Fold change vs veh, ILF3 / RFU 11762660_at / Fold change /veh 11762660_at / RFU VCAN (11757783_s_at) / Fold change /veh VCAN (11757783_s_at) / RFU DDX43 (11728927_at) / Fold change /veh DDX43 (11728927_at) / RFU KRT8 (11758188_x_at) / Fold change /veh KRT8 (11758188_x_at) / RFU NKD1 (11759106_at) / Fold change /veh NKD1 (11759106_at) / RFU SRD5A1 (11742802_a_at) / Fold change /veh SRD5A1 (11742802_a_at) / RFU TPSAB1 /// TPSB2 (11721975_s_at) / Fold change /veh TPSAB1 /// TPSB2 (11721975_s_at) / RFU GSTM3 (11746129_a_at) / Fold change /veh GSTM3 (11746129_a_at) / RFU IL23R (11737362_x_at) / Fold change /veh IL23R (11737362_x_at) / RFU TMEM51 (11727254_a_at) / Fold change /veh TMEM51 (11727254_a_at) / RFU PIWIL2 (11732686_x_at) / Fold change /veh PIWIL2 (11732686_x_at) / RFU ORM1 (11744905_x_at) / Fold change /veh ORM1 (11744905_x_at) / RFU CCDC152 (11743942_at) / Fold change /veh CCDC152 (11743942_at) / RFU ECM1 (11717891_a_at) / Fold change /veh ECM1 (11717891_a_at) / RFU IL23R (11748794_a_at) / Fold change /veh IL23R (11748794_a_at) / RFU TNFAIP8L3 (11732012_x_at) / Fold change /veh TNFAIP8L3 (11732012_x_at) / RFU MBOAT4 (11741988_at) / Fold change /veh MBOAT4 (11741988_at) / RFU 11764193_at / Fold change /veh 11764193_at / RFU TMEM53 (11763286_at) / Fold change /veh TMEM53 (11763286_at) / RFU MAGEB2 (11727129_at) / Fold change /veh MAGEB2 (11727129_at) / RFU TMEM200A (11744735_a_at) / Fold change /veh TMEM200A (11744735_a_at) / RFU CCDC152 (11751479_a_at) / Fold change /veh CCDC152 (11751479_a_at) / RFU FAM211A (11726209_a_at) / Fold change /veh FAM211A (11726209_a_at) / RFU RGS16 (11746705_a_at) / Fold change /veh RGS16 (11746705_a_at) / RFU VCAN (11755009_s_at) / Fold change /veh VCAN (11755009_s_at) / RFU RHOB (11743442_s_at) / Fold change /veh RHOB (11743442_s_at) / RFU RGS16 (11720943_a_at) / Fold change /veh RGS16 (11720943_a_at) / RFU RGS16 (11720944_at) / Fold change /veh RGS16 (11720944_at) / RFU, VPS4B / Fold change vs veh, VPS4B / RFU, CREB1 / Fold change vs veh, CREB1 / RFU, DNAJC13 / Fold change vs veh, DNAJC13 / RFU, GNAQ / Fold change vs veh, GNAQ / RFU, CDK5R1 / Fold change vs veh, CDK5R1 / RFU, ZRANB3 / Fold change vs veh, ZRANB3 / RFU, CUL4A / Fold change vs veh, CUL4A / RFU, CCNY / Fold change vs veh, CCNY / RFU, UFL1 / Fold change vs veh, UFL1 / RFU, COG3 / Fold change vs veh, COG3 / RFU, DIAPH2 / Fold change vs veh, DIAPH2 / RFU, SKA2 / Fold change vs veh, SKA2 / RFU, AFF3 / Fold change vs veh, AFF3 / RFU, LMF1 / Fold change vs veh, LMF1 / RFU, IPO11 / Fold change vs veh, IPO11 / RFU, DFFB / Fold change vs veh, DFFB / RFU, FOXP1 / Fold change vs veh, FOXP1 / RFU, CARD8 / Fold change vs veh, CARD8 / RFU, STRN3 / Fold change vs veh, STRN3 / RFU, ADK / Fold change vs veh, ADK / RFU, RASSF2 / Fold change vs veh, RASSF2 / RFU, WIPF1 / Fold change vs veh, WIPF1 / RFU, LARP1B / Fold change vs veh, LARP1B / RFU, RASA1 / Fold change vs veh, RASA1 / RFU, RB1 / Fold change vs veh, RB1 / RFU, PPFIA1 / Fold change vs veh, PPFIA1 / RFU, MAT2A / Fold change vs veh, MAT2A / RFU, CCT5 / Fold change vs veh, CCT5 / RFU, WDR92 / Fold change vs veh, WDR92 / RFU, CUX1 / Fold change vs veh, CUX1 / RFU, TTC7A / Fold change vs veh, TTC7A / RFU, TMEM135 / Fold change vs veh, TMEM135 / RFU, DEPTOR / Fold change vs veh, DEPTOR / RFU, CPM / Fold change vs veh, CPM / RFU, DNAJB6 / Fold change vs veh, DNAJB6 / RFU, CACNA2D3 / Fold change vs veh, CACNA2D3 / RFU, DTX4 / Fold change vs veh, DTX4 / RFU, TFCP2 / Fold change vs veh, TFCP2 / RFU, GMCL1 /// GMCL1P1 / Fold change vs veh, GMCL1 /// GMCL1P1 / RFU, AEBP2 / Fold change vs veh, AEBP2 / RFU, SNHG1 /// SNORD22 /// SNORD25 /// SNORD26 /// SNORD27 /// SNORD28 /// SNORD29 /// SNORD31 / Fold change vs veh, SNHG1 /// SNORD22 /// SNORD25 /// SNORD26 /// SNORD27 /// SNORD28 /// SNORD29 /// SNORD31 / Fold change (Aza/veh), C12orf56 (ProbeSet 11735607_a_at) / Fold change (ACY-1035/veh), C12orf56 (ProbeSet 11735607_a_at) / Fold change (Aza/veh), FGFR1OP (ProbeSet 11751329_s_at) / Fold change (ACY-1035/veh), FGFR1OP (ProbeSet 11751329_s_at) / Fold change (Aza/veh), VPS36 (ProbeSet 11739960_a_at) / Fold change (ACY-1035/veh), VPS36 (ProbeSet 11739960_a_at) / RFU SYPL1 (11715823_x_at) / Fold change /veh SYPL1 (11715823_x_at) / RFU IGFBP7 (11715501_s_at) / Fold change /veh IGFBP7 (11715501_s_at) / RFU REEP3 (11722064_at) / Fold change /veh REEP3 (11722064_at) / RFU IGLL1 (11728026_x_at) / Fold change /veh IGLL1 (11728026_x_at): dose or concentration left out as unconfirmed
Conditions: MV-4-11 cells, 48 hours

With `Nc1ncn([C@@H]2O[C@H](CO)[C@@H](O)[C@H]2O)c(=O)n1` [azacitidine] as the compound, how does the “RFU OR2T12 /// OR2T33 /// OR2T8 (11738714_s_at)” value read?
Its value is 6.40 RFU.
